Patent US6982157B1, “Drug combinations comprising (E)-7-[4-(4-fluorophenyl)-6-isopropyl-2-[methylsulfonyl)amino] pyrimidin-5-yl] (3r,5s) -3,5-dihydroxyhept-6-enoic acid and an inhibitor, inducer or substrate of p450 isoenzyme 3A4” (AstraZeneca AB, priority 1999, dated 2006)

Key:
[1] = test system: cytochrome P450 enzymes, in particular 3A4; conditions: cited from earlier work
patients = conditions: cited from earlier work
[2] = test system: heart transplant patients; conditions: cited from earlier work
human hepatocytes = assay: Metabolism of [14C]-labelled Agent by human hepatocytes; assay type: in vitro ADME; conditions: human hepatocytes in culture, 0-48 hours
Experimental: Cultures were terminated with ethanol after 0, 6, 24 and 48 hours of incubation and stored at approximately −20° C. until analysed. The metabolic competence of the hepatocytes was confirmed at the time of incubation by examining their ability to metabolise [^14C]-ethoxycoumarin (25 μM); aliquots were removed into methanol at the same time points as for the test compound.
Following incubation of [^14C]-ZD4522 with hepatocytes, metabolite profiles were generated by High Performance Liquid Chromatography (HPLC). The ability of hepatocytes to metabolise [^14C]-ethoxycoumarin was confirmed by HPLC.

[3] = test system: hypercholesterolaemia in patients following transplantation; assay: Clinical study of the Agent in post-transplant patients on immunosuppressive therapy; assay type: in vivo, human
Experimental: Trial Design This is a multicenter, randomized, double-blind, parallel-group clinical trial. […] Patients who have had their dose titrated up to 40 mg may have their dose titrated back down to 20 mg at the investigator's discretion.

[4] = test system: mixed hyperlipidaemia and hypertriglyceridaemia in patients; assay: Clinical study of the Agent dosed with a fibrate drug; assay type: in vivo, human
[5] = patients undertaking immunosuppressive therapy

CC[C@H](C)C(=O)O[C@H]1C[C@H](O)C=C2C=C[C@H](C)[C@H](CC[C@@H](O)C[C@@H](O)CC(=O)O)[C@H]21 [pravastatin]
rate of metabolism by P450 [1]: sufficiently low

CC(C)c1c(C(=O)Nc2ccccc2)c(-c2ccccc2)c(-c2ccc(F)cc2)n1CC[C@@H](O)C[C@@H](O)CC(=O)O [atorvastatin]
patients with clinically important (>3 times ULN) elevations in serum ALT (patients; low doses of atorvastatin, European SmPC): 0.8%

CC[C@H](C)C(=O)O[C@H]1C[C@@H](C)C=C2C=C[C@H](C)[C@H](CC[C@@H]3C[C@@H](O)CC(=O)O3)[C@H]21 [Lovastatin, lovastatin]
cholesterol levels in heart transplant patients [2]: lower cholesterol levels

Cc1ccc(C)c(OCCCC(C)(C)C(=O)O)c1 [gemfibrozil]
patients with myositis-flu like syndrome (patients; gemfibrozil when a statin is also administered): 5%

CC(C)c1nc(N(C)S(C)(=O)=O)nc(-c2ccc(F)cc2)c1/C=C/[C@@H](O)C[C@@H](O)CC(=O)O [Agent, (E)-7-[4-(4-fluorophenyl)-6-isopropyl-2-[methyl(methylsulfonyl)amino]pyrimidin-5-yl](3R,5S)-3,5-dihydroxyhept-6-enoic acid]
metabolism of the Agent by whole hepatocytes (human hepatocytes): not significantly metabolised
treating hypercholesterolaemia in patients following transplantation ([3]; patients following transplantation): extremely effective
level of cholesterol lowering compared with what was previously achieved, such as by pravastatin [3, 5]: much higher levels of cholesterol lowering
side effects of concomitant dosing of the Agent and immunosuppressive drug(s) [3, 5]: without any clinically significant side effects
treating mixed hyperlipidaemia and hypertriglyceridaemia when combined with a fibrate drug ([4]; combined with a fibrate drug): extremely effective
side effects of concomitant dosing of the Agent and the fibrate drug ([4]; patients also taking a fibrate drug): without any clinically significant side effects
